Reference: patent US20220017541A1, “INHIBITORS OF ARGINASE” (Black Belt Tx Ltd, priority 2018, published 2022)

Legend:
recombinant human ARG2 = target: T1, recombinant human ARG2 (Homo sapiens, UniProt P78540); assay: Arginase enzymatic assay in vitro, recombinant human ARG2 (colorimetric urea detection); type: biochemical; conditions: recombinant human arginase 2; read-out: IC50 Inh rhARG2
T1 construct: purchased BPS Bioscience 71659
T1 sequence (P78540 23-354): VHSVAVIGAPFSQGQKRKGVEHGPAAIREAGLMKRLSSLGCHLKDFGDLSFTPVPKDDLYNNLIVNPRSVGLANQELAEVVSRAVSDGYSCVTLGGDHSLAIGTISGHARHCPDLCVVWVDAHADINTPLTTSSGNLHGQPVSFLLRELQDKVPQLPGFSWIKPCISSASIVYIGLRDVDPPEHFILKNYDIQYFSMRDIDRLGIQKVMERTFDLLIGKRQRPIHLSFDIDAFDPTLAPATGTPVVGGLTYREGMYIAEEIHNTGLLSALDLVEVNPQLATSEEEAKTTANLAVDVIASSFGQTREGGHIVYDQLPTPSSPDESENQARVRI
Text: (§1) Arginase catalyzes the hydrolysis of L-arginine into L-ornithine and urea. Urea amount produced by this reaction can be detected using a colorimetric assay and used as an indirect measurement of arginase activity. An adapted protocol from (Baggio, R., et al., J Pharmacol Exp Ther, 1999. 290(3): p. 1409-16) was used for the testing the ability of exemplary compounds of the invention to inhibit arginase enzymes from a variety of sources including recombinant human ARG1 and 2, lysates of human red blood cells (RBC) and intact murine macrophages, as described below.
(§2) Compounds of the invention were prepared from powder as 10 mM stock solutions in DMSO and stored in presence of N2 neutral atmosphere at −80° C. For IC50 determination and just before the assay, exemplary compounds were successively diluted to get the following concentrations: 210, 70, 21, 7, 2.1, 0.7, 0.21, 0.07, 0.021, 0.007, 0.0021 and 0.0007 μM (i.e., final concentrations in the wells of 30, 10, 3, 1, 0.3, 0.1, 0.03, 0.01, 0.003, 0.001, 0.0003, 0.0001 μM).
(§3) Assays were run in clear flat bottom 96-well plates (Nunclon, Cat. No. #167008) adding in each well the following solutions in this order: (1) 10 μl of Tris-HCl solution supplemented with 0.1% bovine serum albumin (BSA) containing 1.563 μg/ml recombinant human ARG1 (R&D System, Cat. No. #5868-AR-010), (2) 30 μl of Tris-HCl buffer containing 10 mM MnCl2 and (3) 10 μL of a pre-dilution of each test article or DMSO (vehicle). Compounds were allowed to interact with the enzyme-cofactor complex pre-incubating the plate at 37° C. for 30 min. To start the reaction, 20 μl of 50 mM L-arginine (Sigma Aldrich Cat. #A5006-100G) were added to each well in exception of the blank reaction (see below). All reactions were allowed to happen for 1 h at 37° C. To detect the urea production, reactions were stopped by adding 200 μl of a mixture of reagent A (4 mM o-phthalaldehyde in 50 mM Boric Acid, 1 M Sulfuric Acid, 0.03% Brij-35 (w/v)) and reagent B (4 mM N-(1-naphthyl)ethylenediamine in 50 mM Boric Acid, 1 M Sulfuric Acid, 0.03% Brij-35 (w/v)) in equal proportion. Color product was developed for 1 h at room temperature (RT) protected from light and then absorbance at 520 nm was measured using a Multifunction Microplate Reader (Synergy 4, Bioteck). Blank reactions were carried out by adding the L-arginine substrate only after the addition of mixture A-B. All reactions were carried out in duplicates.
(§4) The inhibition of urea production was calculated subtracting the absorbance from the blank reaction (zero enzymatic urea production) to the absorbance from all reactions and it was expressed as the percentage of the absorbance from the reaction containing the test article with respect to the absorbance from vehicle reaction (maximum of urea production).
For testing inhibitory activity over recombinant human arginase II, 10 μl of Tris-HCl solution supplemented with 0.1% BSA containing 1.5 μg/ml recombinant human ARG2 (BPS Bioscience, Cat. No. #71659) was used instead of ARG1.

[1] = target: T2, native ARG1 enzyme in lysates of RBC (Homo sapiens, UniProt P05089); assay: Arginase enzymatic assay in RBC lysates from healthy donors; type: biochemical; conditions: human red blood cell lysates; read-out: IC50 Inh RBC
T2 construct: native ARG1 enzyme in lysates of RBC; from tissue; host or cells: human red blood cell lysates from healthy donors
T2 sequence (P05089 1-322): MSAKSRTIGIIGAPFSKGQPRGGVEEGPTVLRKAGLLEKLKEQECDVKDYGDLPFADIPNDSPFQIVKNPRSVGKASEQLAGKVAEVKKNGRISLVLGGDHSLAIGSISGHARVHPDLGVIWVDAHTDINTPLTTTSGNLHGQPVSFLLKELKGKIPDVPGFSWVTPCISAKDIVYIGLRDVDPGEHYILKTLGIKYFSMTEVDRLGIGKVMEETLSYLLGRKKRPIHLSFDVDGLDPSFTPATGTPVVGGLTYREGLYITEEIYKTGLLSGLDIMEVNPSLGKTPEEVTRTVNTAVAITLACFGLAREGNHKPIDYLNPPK
Text: as §1, §2, §3, §4
For testing inhibitory activity over RBC lysates from healthy donors, 10 μl of Tris-HCl solution supplemented with 0.1% BSA containing 160 μg RBC lysates per well was used instead.

recombinant human ARG1 = target: T3, recombinant human ARG1 (Homo sapiens, UniProt P05089); assay: Arginase enzymatic assay in vitro, recombinant human ARG1 (colorimetric urea detection); type: biochemical; conditions: recombinant human arginase 1; read-out: IC50 Inh rhARG1
T3 construct: purchased R&D System 5868-AR-010
T3 sequence (P05089 1-322): T2 sequence (P05089 1-322)
Text: as §1, §2, §3, §4

[2] = target: T4, arginase activity in intact BMM-M2 cells (Mus musculus, UniProt Q61176); assay: Cell-based arginase assay: urea production by cultured BMM-M2 cells; conditions: 10 μM test compound, 24 h, read-out: Inh. urea production @10 μM (%)
T4 construct: endogenous in cells; host or cells: bone-marrow derived macrophages from male C57BL/6 mice, polarised to M2 with IL-4
T4 sequence (Q61176 1-323): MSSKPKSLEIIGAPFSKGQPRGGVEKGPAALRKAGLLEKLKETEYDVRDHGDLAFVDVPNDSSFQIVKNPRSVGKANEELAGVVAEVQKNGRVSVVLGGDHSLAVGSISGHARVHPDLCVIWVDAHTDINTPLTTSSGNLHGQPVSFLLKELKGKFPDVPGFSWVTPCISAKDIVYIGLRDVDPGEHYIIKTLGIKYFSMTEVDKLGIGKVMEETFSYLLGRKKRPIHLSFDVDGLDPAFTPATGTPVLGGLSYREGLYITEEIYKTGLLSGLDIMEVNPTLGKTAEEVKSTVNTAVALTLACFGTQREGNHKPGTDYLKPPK
Protocol: Murine bone-marrow derived macrophages (BMM) represent a convenient in vitro model that enables differentiation of these cells towards M1 or M2 macrophages. Briefly, male C57BL/6 mice 7-8 weeks old were euthanized by carbon dioxide asphyxiation. Femur and tibiae bones were removed under aseptic conditions and collected in a plate containing sterile ice-cold PBS 1×. After sterilization of bones in 70% ethanol during 1 min, bones were placed into a clean Petri dish containing fresh sterile ice-cold PBS 1×. The ends of each bone were cut and the marrow cavity was flushed using forceps and syringes filled with pre-warmed complete α-MEM growing medium (α-MEM without red phenol (Life Technologies, Cat. No. #41061-029) supplemented with 10% FBS, penicillin and streptomycin). Bone marrow (BM) cells were harvested in a 15 ml clean tube and centrifuged at 400 g for 8 min at RT. Supernatant was discarded and BM pellet was re-suspended in 5 ml Ammonium-Chloride-Potassium (ACK) buffer for 5 minutes at RT to lysis RBC. BM cell suspension was centrifuged at 400 g for 8 min at RT. Supernatant was discarded and BM cell pellet was re-suspended in complete α-MEM growing medium and passed through a 70 μm cell restrainer to eliminate solid contaminates and cellular aggregates. BM cells were seeded in 8 ml of complete α-MEM growing medium supplemented with 100 ng/ml recombinant mouse M-CSF (R&D Systems, Cat. No. #416-ML-050) in 100-mm dishes. BM cells were cultured overnight to get rid of contaminating stromal cells in a humidified incubator with 5% CO2 at 37° C. At the following day, non-adherent cells were collected in a clean 15-ml tube and centrifuged at 400 g for 8 min at RT. Cell pellet was re-suspended in complete α-MEM growing medium and counted using a hemocytometer Neubauer's chamber. Hematopoietic precursor cells were differentiated into BMM in presence of complete α-MEM growing medium supplemented 50 ng/ml M-CSF for 3 days. Finally to polarize BMM towards M2 phenotype, cells were incubated in presence 20 ng/ml of recombinant mouse IL-4 (R&D Systems, Cat. No. #404-ML-010) added to fresh complete α-MEM growing medium supplemented 50 ng/ml M-CSF for 24 h.
At the day of the experiment, BMM-M2 were treated for 24 h with vehicle (DMSO) or compounds of the invention at 1 and 10 μM prepared in fresh complete α-MEM growing medium supplemented 50 ng/ml M-CSF, 20 ng/ml IL-4 and 10 mM L-arginine (Cat. No. #A5006, Sigma Aldrich). At the next day, 70 μl aliquots of each treated culture media (supernatants) were transferred into a clear 96-well plate. Measurements of urea produced by BMM-M2 were performed using the adapted protocol detailed in Example B1. Wells without BMM-M2 containing only treatment media (vehicle) were used to determine the zero cell-derived urea production (blank). All treatments were carried out in triplicates.
The inhibition of urea production was calculated subtracting the absorbance from the blank to the absorbance from all treatments and it was expressed as the percentage of the absorbance from the reaction containing the test article treatment with respect to the absorbance from vehicle treatment (maximum of urea production).

Row | SMILES | IC50 (recombinant human ARG2) | IC50 [1] | IC50 (recombinant human ARG1) | inhibition at 10 µM [2]
1 | NC(CCCCB(O)O)(C(=O)O)C1CCN(C2CCCc3cccnc32)CC1 (single isomer, unassigned) [Compound 32, 2-amino-6-borono-2-(1-(5,6,7,8-tetrahydroquinolin-8-yl)piperidin-4-yl)hexanoic acid] | < 500 nM | < 500 nM | < 500 nM | 
2 | CC(c1c(Cl)cccc1Cl)N1CCC(C(N)(CCCCB(O)O)C(=O)O)CC1 (single isomer, unassigned) [Compound 91, 2-amino-6-borono-2-(1-(1-(2,6-dichlorophenyl)ethyl)piperidin-4-yl)hexanoic acid] | 500 to 5000 nM |  | < 500 nM | > 25%
3 | CC(c1c(F)cccc1F)N1CCC(C(N)(CCCCB(O)O)C(=O)O)CC1 (single isomer, unassigned) [Compound 92, 2-amino-6-borono-2-(1-(1-(2,6-difluorophenyl)ethyl)piperidin-4-yl)hexanoic acid] | 500 to 5000 nM |  | 500 to 5000 nM | < 15%
4 | NC(CCCCB(O)O)(C(=O)O)C1CCN(C2CCCc3cc(Cl)ccc32)CC1 (stereo not drawn) [Compound 16, 2-amino-6-borono-2-(1-(6-chloro-1,2,3,4-tetrahydronaphthalen-1-yl)piperidin-4-yl)hexanoic acid] | < 500 nM | < 500 nM | < 500 nM | 
5 | NC(CCCCB(O)O)(C(=O)O)C1CCN(C2CCCc3cc(Cl)ccc32)C1 (stereo not drawn) [Compound 48, 2-amino-6-borono-2-[1-(6-chlorotetralin-1-yl)pyrrolidin-3-yl]hexanoic acid] | 500 to 5000 nM |  | 500 to 5000 nM | < 15%
6 | NC(=O)C(N)(CCCCB(O)O)C1CCN(C2CCc3cc(Cl)ccc32)CC1 (stereo not drawn) [Compound 81, (5,6-diamino-5-(1-(5-chloro-2,3-dihydro-1H-inden-1-yl)piperidin-4-yl)-6-oxohexyl)boronic acid] | 500 to 5000 nM | < 500 nM | 500 to 5000 nM | 
7 | NC(CCCCB(O)O)(C(=O)O)C1CCN(C2CCc3cc(Cl)ccc32)C1 (stereo not drawn) [Compound 82, 2-amino-6-borono-2-[1-(5-chloroindan-1-yl)pyrrolidin-3-yl]hexanoic acid] | 500 to 5000 nM |  | < 500 nM | > 25%
